Patent publication US6506607B1, “Methods and compositions for the identification and assessment of prostate cancer therapies and the diagnosis of prostate cancer” (Millennium Pharmaceuticals, Inc., priority 1997, dated 2003)

Tested on: LNCaP cells
Protocol: After 25 hours of incubation in testosterone-containing medium, the cells were detached from the flasks with trypsin and pelleted. Five T162 flasks of pretreated cells were used as a control. Untreated cells were collected in the same manner.
Total RNA was prepared from the cell pellets using the RNeasy protocol (Qiagen).
The PCR products representing partial cDNAs of putatively differentially expressed mRNAs were subcloned into pCR2.1 (InVitrogen) and transformed into INValphaF^1 cells.
The differentially expressed genes were then identified by screening on a Gene Expression Micro-Array™ (Synteni, Inc.; Fremont, Calif.).
In some cases only a partial sequence is presented in the corresponding figure. The various methods described herein can employ complete sequences or fragments thereof.

## C[C@]12CC[C@H]3[C@@H](CCC4=CC(=O)CC[C@@]43C)[C@@H]1CC[C@@H]2O [testosterone]
  Fold Increase In mRNA: 54 kDa progesterone receptor-associated immunophilin FKBP54: 2.5
  Fold Increase In mRNA: Ankyrin G (ANK-3) (U13616): 2.7
  Fold Increase In mRNA: Aryl hydrocarbon receptor nuclear translocator: 4.6
  Fold Increase In mRNA: BM28 mRNA/DNA replication licensing factor (huMCM2): 2.4
  Fold Increase In mRNA: Cell division protein kinase 6: 3.1
  Fold Increase In mRNA: Cytochrome b5: 3.3
  Fold Increase In mRNA: ESTs {23605}: 2.5
  Fold Increase In mRNA: ESTs {26259}: 5
  Fold Increase In mRNA: ESTs {32161}: 2.5
  Fold Increase In mRNA: ESTs {41700}: 4
  Fold Increase In mRNA: ESTs {46287}: 3
  Fold Increase In mRNA: ESTs {48537}: 4.5
  Fold Increase In mRNA: ESTs {51591}: 2.3
  Fold Increase In mRNA: ESTs {52371}: 2.6
  Fold Increase In mRNA: ESTs {128055}: 2.8
  Fold Increase In mRNA: ESTs {128990}: 5
  Fold Increase In mRNA: ESTs {131591}: 2.3
  Fold Increase In mRNA: ESTs {135326}: 3.4
  Fold Increase In mRNA: ESTs {141115}: 2.3
  Fold Increase In mRNA: ESTs {151339}: 2.4
  Fold Increase In mRNA: ESTs {174787}: 2.4
  Fold Increase In mRNA: ESTs {177150}: 3.1
  Fold Increase In mRNA: ESTs {180082}: 2.1
  Fold Increase In mRNA: ESTs {195079}: 4.3
  Fold Increase In mRNA: ESTs {221118}: 4.4
  Fold Increase In mRNA: ESTs {230447}: 2.4
  Fold Increase In mRNA: ESTs {242643}: 4.1
  Fold Increase In mRNA: ESTs {249347}: 3.5
  Fold Increase In mRNA: ESTs {264293}: 3
  Fold Increase In mRNA: ESTs {297463}: 2.3
  Fold Increase In mRNA: ESTs {301487}: 3.8
  Fold Increase In mRNA: ESTs {344156}: 5.9
  Fold Increase In mRNA: ESTs {364477}: 2.5
  Fold Increase In mRNA: ESTs {364618}: 2.7
  Fold Increase In mRNA: ESTs {375900}: 3.1
  Fold Increase In mRNA: ESTs {415795}: 2.8
  Fold Increase In mRNA: ESTs {429349}: 3
  Fold Increase In mRNA: ESTs {469725}: 3.7
  Fold Increase In mRNA: ESTs {471083}: 2.6
  Fold Increase In mRNA: ESTs {488092}: 2.5
  Fold Increase In mRNA: EXT1 = putative tumor suppressor/hereditary mult. exostoses candidate gene: 2.4
  Fold Increase In mRNA: Eukaryotic initiation factor 1A: 2.4
  Fold Increase In mRNA: Fibronectin (S00848, transformation-associated human fragment): 2.8
  Fold Increase In mRNA: Gelsolin precursor: 2.8
  Fold Increase In mRNA: Guanine nucleotide exchange factor MSS4 (U74324) (−76 nucleotide): 2.7
  Fold Increase In mRNA: HEK2 protein tyrosine kinase receptor: 2.6
  Fold Increase In mRNA: High mobility group protein HMG1 (X12597): 2.6
  Fold Increase In mRNA: Histone H2AZ: 2.5
  Fold Increase In mRNA: Immunoglobulin rearranged H-chain V-region (C-D-J Hg): 3.6
  Fold Increase In mRNA: KIAA0018 gene (D13643): 3.3
  Fold Increase In mRNA: Kinesin-related protein: 4.8
  Fold Increase In mRNA: L-lactate dehydrogenase M chain (X02152, M17516): 3
  Fold Increase In mRNA: Monoamine oxidase: 5.5
  Fold Increase In mRNA: Myeloblast KIAA0130 gene (D50920): 3.3
  Fold Increase In mRNA: Neprilysin: 2.8
  Fold Increase In mRNA: Phospholipase A2 (M22430): 2.7
  Fold Increase In mRNA: Pyruvate kinase (M26252) = human TCB gene encoding cytosolic thyroid hormone-binding protein: 2.3
  Fold Increase In mRNA: Ras-like GTP-binding protein RAN: 2.6
  Fold Increase In mRNA: S-adenosylmethionine decarboxylase: 2.3
  Fold Increase In mRNA: S-adenosylmethionine decarboxylase proenzyme (M21154): 2.5
  Fold Increase In mRNA: STS (WI 12919): 7.7
  Fold Increase In mRNA: STS (WI-8530): 5
  Fold Increase In mRNA: Simian T-cell lymphotropic virus type I DNA for tax/rex region: 2.3
  Fold Increase In mRNA: Spectrin alpha chain: 3.5
  Fold Increase In mRNA: Thyroid receptor interactor (TRIP7) (L40357) (−92 nucleotide): 2.4
  Fold Increase In mRNA: Tubulin beta 1 chain: 2.8
  Fold Increase In mRNA: UDP glucuronosyltransferase precursor (UGT2B15): 2.8
  Fold Increase In mRNA: UDP-glucuronosyltransferase 2B7 precursor: 3.9
  Fold Increase In mRNA: Vacuolar ATP synthase subunit AC39; or bovine (P17694) NADH-ubiquinone oxidoreductase 49 kD subunit: 3.1
  Fold Increase In mRNA: Yeast guanine nucleotide-binding protein beta subunit-like protein: 2.4
  Fold Increase In mRNA: p0071 protein (X81889): 2.4
